# Measured values: patent US20120083471A1, “Novel Compounds, Pharmaceutical Compositions Containing Same, Methods of Use for Same, and Methods for Preparing Same” (priority 2008, published 2012)
# Entries after “also recorded” stand apart in the source; their conditions may differ.
# Legend:
# Type in all cases: in vivo, mouse
# DIO mice [1] = assay: 10 d FSG67 treatment of DIO mice with Q-NMR assessment of adiposity
# Experimental: Q-NMR assessment of adiposity. Following 10 days of FSG67 treatment or vehicle by ip administration, the DIO mice were euthanized and carcasses were stored at −80° C. Carcasses were thawed for Q-NMR analysis. Measurement of fat, lean, and water mass was performed using an EchoMRI-100™ (Echo Medical Systems, Houston, Tex.) in the Molecular and Comparative Pathobiology Phenotyping Core.
# Since FSG67 increased fatty acid oxidation and reduced food intake in DIO mice, we next used Q-NMR analysis to measure lean, fat and water mass in FSG67 treated and control mice to determine the composition of the tissue loss with FSG67 treatment. In an additional chronic treatment experiment, 10 DIO mice were treated with FSG67 (5 mg/kg/d, ip) and 10 received vehicle for 10 days. The FSG67 treated mice lost 6.1±0.9 g (13.1±1.9%) while vehicle controls lost 1.1±0.4 g (2.3±0.8%) (p<0.0001. 2-way ANOVA). […] At the conclusion of the experiment, the FSG67 treated mice weighed 4.4 g less than the vehicle controls, which could be accounted for by the 4.0 g difference in fat mass. Thus, GPAT inhibition selectively reduces adiposity in DIO mice.
# [2] = tested on: hypothalamic neuropeptide expression; assay: Real-time RT-PCR of hypothalamic neuropeptides in DIO mice
# Experimental: (§1) For acute studies, 6 DIO or lean mice were treated with a single dose of FSG67 (20 mg/kg, i.p.) approximately 3 hrs past lights-on. Animal weights and food consumption were measured 18 h after treatment. Following euthanization, the hypothalmuses were harvested to measure orexigenic and anorexigenic neuropeptide gene expression. In the chronic studies, DIO mice, 4-10 animals per group, were treated daily with FSG67 (5 mg/kg, i.p.) or with RMPI vehicle for the days indicated. Body weight and food intake were measured daily. In one study, a cohort of mice was pair-fed with amounts consumed by the FSG67-treated animals and mice were monitored with indirect calorimetry (Oxymax Equal Flow System®, Columbus Instruments, Columbus, Ohio). Measurements of VO2 (ml/kg/hr) and VCO2 (ml/kg/hr) were performed and recorded every 15 min. The respiratory exchange ratio (RER) was calculated by Oxymax software, version 5.9, and is defined as ratio of VCO2 to VO2 33. After completion of the treatment course, animals were euthanized by CO2 inhalation 4 hrs following the final dose of FSG67. Tissues were harvested immediately for RNA extraction; serum was collected and analyzed for glucose, cholesterol, and triglyceride measurements (Bioanalytics, Gaithersburg, Md.). Fresh liver tissue was snap frozen in liquid N2, sectioned, and stained with hematoxylin and Oil Red O to visualize triglyceride droplets.
# (§2) Real-time RT-PCR. Hypothalamus, liver, and WAT of DIO and lean mice were harvested and immediately frozen in liquid nitrogen. Total RNA was isolated and real-time quantitative RT-PCR was performed as previously described (13). Gene-specific primer pairs were designed using Primer3 software (http://www-genome.wi.mit.edu/cgi-bin/primer/primer3_www.cgi/). […]
# (§3) Acute and chronic FSG67 treatment altered hypothalamic neuropeptide expression. Hypothalamic peptide expression was measured in the lean and DIO mice treated with a single dose of FSG67 (see FIG. 11) and in the chronically treated DIO mice (see FIG. 12) to further asses the mechanism responsible for reduced food intake. […]
# [3] = tested on: hypothalamic neuropeptide expression; assay: Real-time RT-PCR of hypothalamic neuropeptides in lean mice after single dose; settings: single 20 mg/kg
# Experimental: as §1, §2, §3
# DIO mice [4] = assay: Chronic 16 d FSG67 treatment of DIO mice with indirect calorimetry and pair-fed group; settings: 5 mg/kg ip daily
# Experimental: as §1
# In the second chronic treatment study, indirect calorimetry was utilized to study changes in metabolism during GPAT inhibition. DIO mice (8 per group) were treated with FSG67 (5 mg/kg, ip), or pair-fed to FSG67 treated animals. Indirect calorimetry was utilized to measure changes in oxygen consumption (VO2) and respiratory exchange ratio (RER) between pair-fed and treated animals. After 16 days of treatment, the FSG67 treated mice lost 9.5±0.6% of body mass, pair-fed lost 5.5±0.9%, while vehicle controls gained 3.5±1.3% (FIG. 12c). The weight loss in the FSG67 treated animals was significant compared to both vehicle controls and pair-fed animals (p<0.0001, 2-way ANOVA). […] RER was reduced in FSG67 treated mice (0.732±0.002) compared to pair-fed (0.782±0.006) (p<0.0001, 2-way ANOVA) (FIG. 12f) indicating increased use of fatty acids for fuel in the FSG67 treated animals. The combination of increased VO2 and reduced RER in the FSG67 treated animals are consistent with increased fatty acid oxidation and energy utilization which likely contribute to their reduced body mass compared to the pair-fed controls.
# [5] = tested on: lipogenic gene expression; assay: Real-time RT-PCR gene expression in liver and white adipose tissue of 16 d treated DIO mice
# Experimental: Real-time RT-PCR. Hypothalamus, liver, and WAT of DIO and lean mice were harvested and immediately frozen in liquid nitrogen. Total RNA was isolated and real-time quantitative RT-PCR was performed as previously described (13). Gene-specific primer pairs were designed using Primer3 software (http://www-genome.wi.mit.edu/cgi-bin/primer/primer3_www.cgi/). The sequences of the primer pairs are listed in Supplemental Data Table 1.
# To further explore the mechanism responsible for the reduction in adipose tissue mass, we used real-time RT-PCR to measure the expression of the following key lipogenic genes in white adipose tissue from vehicle control, pair-fed, and FSG67 treated DIO mice from the second indirect calorimetry trial (see FIG. 12c): fatty acid synthase (FAS), responsible for the de novo reductive synthesis of fatty acid 13, acetyl-CoA carboxylase 1 (ACC1), the cytoplasmic isoform of ACC expressed in lipogenic organs that synthesizes malonyl-CoA used as a substrate of FAS for fatty acid synthesis 14, peroxisome proliferator-activated receptor gamma (PPARγ) a key transcription factor for adipogenesis 15, lipid partitioning 16, and postprandial lipid storage 17, and GPAT. […] (FIG. 19). Thus, pharmacological GPAT inhibition not only increases fatty acid oxidation and reduces food intake, but up-regulates UCP2 in liver and white adipose tissue while down-regulating lipogenic gene expression in white adipose tissue, all of which should favor a selective decrease in adiposity. […]
# [6] = vs control and pair-fed, listed as FSG67
compound,measurement,setting,value
"CCCCCCCCCS(=O)(=O)Nc1ccccc1C(=O)O [Compound 15g, 2-(Nonylsulfonamido)benzoic acid]",reduction in fat mass compared to vehicle controls (Q-NMR),"DIO mice [1]; 5 mg/kg ip daily, 10 d",4.0 g
same,lean and water mass (Q-NMR),"DIO mice [1]; 5 mg/kg ip daily, 10 d, listed as FSG67, 5 mg/kg",no significant change; also recorded: unaffected
same,final weight difference to vehicle controls,DIO mice [1]; conclusion of 10 d experiment,4.4 g
same,"hypothalamic AGRP, POMC and CART expression",[2]; 16 d treated,unaffected
same,hypothalamic NPY expression,"[2]; 16 d treated, vs vehicle controls, listed as FSG67",significant reduction
same,hypothalamic AGRP expression,"[2]; single dose, vs vehicle controls and food-deprived (data not shown)",significantly increased
same,hypothalamic NPY expression,[3]; compared to fasted mice,significantly reduced
same,hypothalamic AGRP expression,"[3]; compared to vehicle control and fasted mice, listed as FSG67, 20 mg/kg",substantially diminished
same,hypothalamic POMC and CART expression,"[3]; listed as FSG67, 20 mg/kg",not affected; also recorded: unaffected
same,average daily food consumption,DIO mice [4]; 16 days,2.0 ± 0.1 g/day
same,body mass lost,DIO mice [4]; 16 days,9.5±0.6%
same,reduction of average daily food consumption vs vehicle,DIO mice [4]; 16 days,33%
same,average RER,DIO mice [4]; indirect calorimetry,0.732±0.002
same,"average VO2, % of pre-treatment value",DIO mice [4]; indirect calorimetry,106.5±1.1%
same,GPAT expression in liver,[5]; listed as FSG67,unaffected
same,L-CPT-1 expression in liver and WAT,[5]; listed as FSG67,unaffected; also recorded: not affected
same,UCP2 expression in liver,[5]; vs control,increased
same,ACC1 expression in white adipose tissue,[5]; [6],substantial down-regulation; also recorded: down regulated
same,FAS expression in white adipose tissue,[5]; [6],substantial down-regulation; also recorded: down regulated
same,GPAT expression in white adipose tissue,[5]; [6],substantial down-regulation; also recorded: down regulated
same,PPARγ expression in white adipose tissue,[5]; [6],substantial down-regulation; also recorded: down regulated
same,UCP2 expression in WAT,[5]; vs pair-fed,increased
same,ACC1 expression in liver,"[5]; vs pair-fed, listed as FSG67",significant reduction; also recorded: reduced
same,FAS expression in liver,"[5]; vs vehicle and pair-fed, listed as FSG67",significant reduction; also recorded: reduced
